# Where “and” joins values, the source holds several entries; their conditions need not be identical. Identical values can stand only once. Like-named read-outs stand apart in the source and are kept apart here. Numbered stars: 1 amine (or outer) side, 2 acyl side, 3 side chain; on linkers, the order of the positions; unused ones are H or OH. Bridge positions count the residues as written; N and C are the ends. Square brackets hold non-standard residues; d marks the D form. Peptide text beside a SMILES is read from it. I, II: the chains in the order shown. Actinocin(9to1) = Cc1c2oc3c(C)ccc(C(=O)[*:1])c3nc-2c(C(=O)[*:2])c(N)c1=O; NMeV = CN[C@H](C(=O)O)C(C)C; Sar = CNCC(=O)O
# How the values were obtained:
# NR viability assay, WS1 = format: cell-based, Homo sapiens; settings: human; WS1, NR assay, 72 h; read-out: Viability CC50
# Protocol: (§1) The HEK001 (Homo sapiens cutaneous keratinocyte, CCL-2404), WS1 (Homo sapiens cutaneous fibroblast, CRL-1502), HMCB (Homo sapiens cutaneous melanoma, CRL-9607), and THP-1 (Homo sapiens peripheral blood monocyte, TIB-202) cell lines used in this study were obtained from the American Type Culture Collection (ATCC, Manassas, VA, USA). Cultivated in a Roswell Park Memorial Institute (RPMI) 1640 medium (RPMI 1640 Merck, Cat. No. R7755, New York, NY, USA) supplemented with 2 mM L-glutamine (≥99% Merck, Cat. No. 56-85-9), 10% fetal bovine serum (FBS Merck, Cat. No. TMS-016, St. Louis, MO, USA), and 10,000 units of penicillin and 10 mg streptomycin/mL (Merck, Cat. No. P4333, St. Louis, MO, USA) in culture flasks, the cells were maintained in an incubator under normoxic conditions (20–21% O2) and a humidified atmosphere (5% CO2 at 37 °C).
# (§2) Mother solutions of samples (extracts, fractions, and compounds) were prepared at a concentration of […] using dimethyl sulfoxide (DMSO ≥ 99.9% Merck, Cat. No. 67-68-5, St. Louis, MO, USA) as the solvent. From these mother solutions, dilutions were prepared at concentrations ranging from 100 to 0.20 μg/mL or μM in culture medium containing 0.5% DMSO. Additionally, a negative control group consisting solely of culture medium with 0.5% DMSO was included to assess its potential cytotoxic effect on the cells.
# (§3) Cell viability was evaluated using a colorimetric assay in 96-well plates, employing 3-amino-7-dimethylamino-2-methylphenazine hydrochloride salt reagent (NR, Merck, Cat. No. 553-24-2, St. Louis, MO, USA).
# (§4) HEK001, WS1, HMCB, and THP-1 cell lines were cultured in 96-well plates at 37 °C with 5% CO2 until > 90% confluency was achieved (1 × 10^6 cells/well). Subsequently, the cultures were treated with sample dilutions (100–0.20 μg/mL or μM) for 72 h at 37 °C with 5% CO2 in phenol red-free RPMI. The supernatant was then discarded and the cells were washed with phosphate-buffered saline (PBS) before being incubated with […] NR (50 μg/mL; 173 μM) for 3 h at 37 °C with 5% CO2. NR labelling was performed after DMSO treatment. After incubation, the labelled sample dilutions were rapidly washed with a fixative solution composed of 1% calcium chloride (CaCl2 Merck, Cat. No. 10043-52-4, St. Louis, MO, USA) and 0.5% formaldehyde solution (≥36.0% in H2O Merck, Cat. No. 50-00-0, St. Louis, MO, USA), then diluted with 100 μL of the NR extraction solution. Finally, the plates were read at 540 nm using a microplate reader (Anthos 2020, version 2.0.5, Biochrom Ltd., Cambridge, UK).
# NR viability assay, HMCB = format: cell-based, Homo sapiens; settings: human; HMCB, NR assay, 72 h; read-out: Viability CC50
# Protocol: as §1, §2, §3, §4
# [1] = NR viability assay, HEK001; format: cell-based, Homo sapiens; settings: human; HEK001, NR assay, 72 h; read-out: Viability CC50
# Protocol: as §1, §2, §3, §4
# [2] = test system: HEK001, WS1, HMCB, and THP-1 cell lines; assay: Viability assay, positive control value of the method (cell line not stated); format: cell-based; settings: Homo sapiens
# Protocol: as §3, §4
# [3] = NR viability assay, THP-1; format: cell-based, Homo sapiens; settings: human, THP-1, NR assay, 72 h; read-out: Viability CC50
# Protocol: as §1, §2, §3, §4
# Nrf2 [4] = assay: Nrf2 activation assay, THP-1; format: cell-based; settings: Homo sapiens, THP-1, 72 h; read-out: Activation of Nrf2 production EC50
# Protocol: (§5) To determine the antioxidant response of the samples (at the same concentration as in the viability assay), Nrf2 activation assay was used, following the protocol carried out by Apaza Ticona et al.. Cells were cultured in 96-well plates (1 × 10^6 cells/well). […] Absorbance was measured at 540 nm using a microplate reader.
# Nrf2 [5] = assay: Nrf2 activation assay, positive control value of the method (cell line not stated); format: cell-based; settings: Homo sapiens
# Protocol: as §5
# Nrf2 [6] = assay: Nrf2 activation assay, WS1; format: cell-based; settings: Homo sapiens; WS1, 72 h; read-out: Activation of Nrf2 production EC50
# Protocol: as §5
# Nrf2 [7] = assay: Nrf2 activation assay, HEK001; format: cell-based; settings: Homo sapiens, HEK001, 72 h; read-out: Activation of Nrf2 production EC50
# Protocol: as §5
# Nrf2 [8] = assay: Nrf2 activation assay, HMCB; format: cell-based; settings: Homo sapiens, 72 h, read-out: Activation of Nrf2 production EC50
# Protocol: as §5
# NF-κB [9] = assay: NF-κB inhibition assay, positive control value of the method (cell line not stated); format: cell-based; settings: Homo sapiens
# Protocol: (§6) To determine the anti-inflammatory activity of the samples (at the same concentration as in the viability assay), NF-κB inhibition assay was used, following the protocol carried out by Apaza Ticona et al.. Cells were cultured in 96-well plates (1 × 10^6 cells/well). […] Absorbance was measured at 450 nm using a microplate reader.
# NF-κB [10] = assay: NF-κB inhibition assay (LPS-stimulated), HEK001; format: cell-based; settings: Homo sapiens, HEK001, 72 h, read-out: NF-κB Inhibition at 72 h IC50 ± SEM
# Protocol: as §6
# NF-κB [11] = assay: NF-κB inhibition assay (LPS-stimulated), WS1; format: cell-based; settings: Homo sapiens, 72 h, read-out: NF-κB Inhibition at 72 h IC50 ± SEM
# Protocol: as §6
# NF-κB [12] = assay: NF-κB inhibition assay (LPS-stimulated), HMCB; format: cell-based; settings: Homo sapiens, 72 h, read-out: NF-κB Inhibition at 72 h IC50 ± SEM
# Protocol: as §6
# NF-κB [13] = assay: NF-κB inhibition assay (LPS-stimulated), THP-1; format: cell-based; settings: Homo sapiens, THP-1, 72 h, read-out: NF-κB Inhibition at 72 h IC50 ± SEM
# Protocol: as §6
# [14] = molecular target: T1, elastase from porcine pancreas (Sus scrofa, UniProt P00772); assay: Elastase-inhibitory effect assay; format: biochemical
# T1 construct: elastase from porcine pancreas (7.5 units/mL); from tissue; host or cells: porcine pancreas
# Protocol: The elastase-inhibitory effect was evaluated, implementing the protocol adapted from Tu and Tawata.
# A mixture containing N-succinyl-Ala-Ala-Ala-p-nitroanilide (AAAPVN, Merck, Cat. No. 52299-14-6, St. Louis, MO, USA) elastase substrate in 0.1232 M Tris-HCl buffer solution (pH 8) was prepared to achieve a concentration of 1.015 mM. This elastase substrate was combined with 10 μL of the test samples at the same concentrations used as in the viability assay in 96-well plates and pre-incubated at room temperature (25 ± 5 °C) for 10 min. Subsequently, the reaction was initiated by adding 10 μL of elastase from porcine pancreas (7.5 units/mL) in Tris buffer solution to the pre-incubated mixtures. Absorbance was then measured at 410 nm using a microplate reader.
# collagenase = assay: Collagenase inhibitory assay; format: biochemical
# Protocol: A fixed weight of 1 mg of azo dye-impregnated collagen was measured in the test tubes. Subsequently, 800 μL of 0.1 M Tris-HCl (pH 7) and 100 μL of the samples at the same concentrations used as in the viability assay were added to each test tube. Next, 100 μL of collagenase (200 units/mL) was immediately mixed into the mixture and the tubes were incubated at 43 °C for 1 h. After incubation, the test tubes were centrifuged at 3000 rpm for 10 min. The supernatant from each tube was transferred into 96-well plates and the absorbance of each supernatant was measured at 550 nm using a microplate reader.
# [15] = test system: melanin production in HMCB cells; assay: Melanin content assay; format: cell-based; settings: Homo sapiens; HMCB cells, 12 h; read-out: Inhibitory activity of melanin production IC50
# Protocol: To determine the anti-melanogenic activity of the samples (at the same concentration as in the viability assay), melanin inhibition assay was used, following the protocol carried out by Apaza Ticona et al.. HMCB cells were cultured in 96-well plates (1 × 10^6 cells/well). […] Absorbance was measured at 405 nm using a microplate reader.
# hyaluronidase = molecular target: T2, hyaluronidase (Bos taurus, UniProt Q2YDK3); settings: cited from earlier work; for Inhibition of active hyaluronidase: 2 mM
# T2 sequence (Q2YDK3 36-553): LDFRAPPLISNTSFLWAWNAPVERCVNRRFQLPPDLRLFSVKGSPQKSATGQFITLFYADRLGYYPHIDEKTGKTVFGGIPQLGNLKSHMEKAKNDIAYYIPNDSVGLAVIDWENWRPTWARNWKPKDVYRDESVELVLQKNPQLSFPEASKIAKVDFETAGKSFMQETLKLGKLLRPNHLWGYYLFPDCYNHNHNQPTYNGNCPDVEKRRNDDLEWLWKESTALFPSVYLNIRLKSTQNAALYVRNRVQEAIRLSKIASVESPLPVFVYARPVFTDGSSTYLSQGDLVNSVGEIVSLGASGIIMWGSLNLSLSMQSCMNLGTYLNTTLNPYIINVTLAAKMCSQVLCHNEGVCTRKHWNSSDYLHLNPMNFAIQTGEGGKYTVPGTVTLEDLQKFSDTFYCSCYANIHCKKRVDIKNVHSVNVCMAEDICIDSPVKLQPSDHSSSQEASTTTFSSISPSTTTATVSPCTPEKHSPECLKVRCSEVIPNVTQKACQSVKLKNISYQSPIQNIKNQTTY
# [16] = equivalent value for the compounds
# [17] = value for the extracts and fractions
# [18] = inhibition percentage 'at an IC50', concentration not otherwise stated
# T1 sequence (P00772 27-266): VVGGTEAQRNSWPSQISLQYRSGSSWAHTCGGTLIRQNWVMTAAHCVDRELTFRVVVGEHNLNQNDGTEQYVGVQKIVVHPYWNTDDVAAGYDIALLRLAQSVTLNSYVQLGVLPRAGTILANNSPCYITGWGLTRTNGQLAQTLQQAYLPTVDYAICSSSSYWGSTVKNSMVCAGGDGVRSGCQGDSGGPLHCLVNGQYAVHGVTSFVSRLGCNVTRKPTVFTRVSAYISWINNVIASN
smiles,measurement,setting,value
"Cc1c2oc3c(C)ccc(C(=O)N[C@@H]4C(=O)N[C@H](C(C)C)C(=O)N5CCC[C@H]5C(=O)N(C)CC(=O)N(C)[C@@H](C(C)C)C(=O)O[C@@H]4C)c3nc-2c(C(=O)N[C@@H]2C(=O)N[C@H](C(C)C)C(=O)N3CCC[C@H]3C(=O)N(C)CC(=O)N(C)[C@@H](C(C)C)C(=O)O[C@@H]2C)c(N)c1=O [ACTD, Actinomycin D, reference compound] (I: T[dV]P[Sar][NMeV] / II: T[dV]P[Sar][NMeV]; ester I:1-I:C, II:1-II:C; linker I:N-II:N via Actinocin(9to1))",CC50 at 72 h,"NR viability assay, WS1",0.0173 µg/mL and 8 nM
same,CC50 at 72 h,"NR viability assay, HMCB",0.0161 µg/mL and 7 nM
same,CC50 at 72 h,[1],0.0184 µg/mL and 9 nM
same,IC50,[2]; [16],0.008 µM
same,IC50,[2]; [17],0.01 µg/mL
same,CC50 at 72 h,[3],0.0192 µg/mL and 9 nM
"COC(=O)[C@]12CCC(C)(C)C[C@H]1[C@H]1C(=O)C=C3[C@@]4(C)C=C(C#N)C(=O)C(C)(C)[C@@H]4CC[C@@]3(C)[C@]1(C)CC2 [CDDO-Me, 2-Cyano-3,12-dioxo-oleana-1,9(11)-dien-28-oic acid methyl ester, reference compound]",EC50,Nrf2 [4],8e-05 µg/mL and 0.13 nM
same,EC50,Nrf2 [5]; [16],0.00011 µM
same,EC50,Nrf2 [5]; [17],0.07 ng/mL
same,EC50,Nrf2 [6],6e-05 µg/mL and 0.09 nM
same,EC50,Nrf2 [7],5e-05 µg/mL and 0.08 nM
same,EC50,Nrf2 [8],7e-05 µg/mL and 0.1 nM
"CC1=C(O)C(=O)C=C2C1=CC=C1[C@@]2(C)CC[C@@]2(C)[C@@H]3C[C@](C)(C(=O)O)CC[C@]3(C)CC[C@]12C [Celastrol, reference compound]",IC50,NF-κB [9]; [16],7.41 µM
same,IC50,NF-κB [9]; [17],3.34 µg/mL
same,IC50,NF-κB [10],7.57 µM and 3.33 µg/mL
same,IC50,NF-κB [11],7.41 µM and 3.29 µg/mL
same,IC50,NF-κB [12],7.36 µM and 3.27 µg/mL
same,IC50,NF-κB [13],7.62 µM and 3.35 µg/mL
"O=C(O[C@@H]1Cc2c(O)cc(O)cc2O[C@@H]1c1cc(O)c(O)c(O)c1)c1cc(O)c(O)c(O)c1 [EGCG, Epigallocatechin gallate, reference compound]",Elastase Inhibition (%),[14]; [18],98.08 ± 1.74% and 94.44 ± 1.30%
same,Anti-Elastase IC50,[14]; marked (*),114 µg/mL and 114.38 ± 3.07 µg/mL
same,IC50,[14]; read-out: Anti-Elastase IC50,250 µM
same,Collagenase Inhibition (%),collagenase; [18],98.81 ± 1.42% and 95.29 ± 2.09%
same,Anti-Collagenase IC50,collagenase; marked (*),114 µg/mL and 114.04 ± 3.07 µg/mL
same,IC50,collagenase; read-out: Anti-Collagenase IC50,250 µM and 251 µM
"O=c1cc(CO)occ1O [Kojic acid, reference compound]",IC50,[15],16.4 µM
COc1ccc(/C=C/C(=O)Nc2ccccc2C(=O)O)cc1OC [Tranilast],Inhibition of active hyaluronidase,hyaluronidase; activator added,50%
same,Inhibition of active hyaluronidase,hyaluronidase,75%
O=C(O)/C=C/c1ccccc1 [trans-cinnamic acid],Hyaluronidase inhibition,hyaluronidase,more than 60%

# — publication PMC11280343, “Rubus urticifolius Compounds with Antioxidant Activity, and Inhibition Potential against Tyrosinase, Melanin, Hyaluronidase, Elastase, and Collagenase” (Pharmaceuticals, 2024)
